Measured values as given in ChEMBL document CHEMBL3124930, “Synthesis of novel 5-(3-alkylquinolin-2-yl)-3-aryl isoxazole derivatives and their cytotoxic activity” (Bioorg Med Chem Lett, 2014).

Assays:
Assay type in all cases: functional, cell-based
[1] = system: MDA-MB-231; test: Cytotoxicity against human MDA-MB-231 cells assessed as growth inhibition after 24 hrs by MTT assay; conditions: MDA-MB-231, 24 h
[2] = system: A549; test: Cytotoxicity against human A549 cells assessed as growth inhibition after 24 hrs by MTT assay; conditions: A549, 24 h
[3] = system: PC-3; test: Cytotoxicity against human PC3 cells assessed as growth inhibition after 24 hrs by MTT assay; conditions: PC-3, 24 h
[4] = system: COLO 205; test: Cytotoxicity against human COLO205 cells assessed as growth inhibition after 24 hrs by MTT assay; conditions: COLO 205, 24 h

Row | SMILES | IC50 [1] | IC50 [2] | IC50 [3] | IC50 [4]
1 | CCCCCc1cc2ccccc2nc1-c1cc(-c2ccccc2)no1 | > 100 µM | 92.3 µM | > 100 µM | > 100 µM
2 | CCCCc1cc2ccccc2nc1-c1cc(-c2ccccc2)no1 | > 100 µM | > 100 µM | > 100 µM | > 100 µM
3 | FC(F)(F)c1ccc(-c2cc(/C=N/c3ccccc3)on2)cc1 | 37.4 µM | 38.9 µM | 35.7 µM | 41.3 µM
4 | CCCc1cc2ccccc2nc1-c1cc(-c2ccccc2)no1 | 47.2 µM | 52.5 µM | 51.3 µM | 48.9 µM
5 | CCCCc1cc2ccccc2nc1-c1cc(-c2ccc(F)cc2)no1 | 24.2 µM | 27.5 µM | 26.3 µM | 25.3 µM
6 | CCc1cc2ccccc2nc1-c1cc(-c2ccc(F)cc2)no1 | > 100 µM | > 100 µM | > 100 µM | > 100 µM
7 | CCCc1cc2ccccc2nc1-c1cc(-c2ccc(C(F)(F)F)cc2)no1 | 36.5 µM | 43.9 µM | 33.8 µM | 42.2 µM
8 | Cc1ccc(-c2cc(/C=N/c3ccccc3)on2)cc1 | 29.4 µM | 32 µM | 31.6 µM | 28.9 µM
9 | CCCc1cc2ccccc2nc1-c1cc(-c2ccc(C)cc2)no1 | > 100 µM | > 100 µM | > 100 µM | > 100 µM
10 | C(=N\c1ccccc1)/c1cc(-c2ccccc2)no1 | > 100 µM | 48.1 µM | > 100 µM | 89.1 µM
11 | CCc1cc2ccccc2nc1-c1cc(-c2ccccc2)no1 | > 100 µM | > 100 µM | > 100 µM | > 100 µM
12 | CCCCc1cc2ccccc2nc1-c1cc(-c2ccc(C)cc2)no1 | > 100 µM | > 100 µM | > 100 µM | > 100 µM
13 | CCc1cc2ccccc2nc1-c1cc(-c2ccc(C)cc2)no1 | > 100 µM | > 100 µM | > 100 µM | > 100 µM
14 | COc1cccc2c1C(=O)c1c(O)c3c(c(O)c1C2=O)C[C@@](O)(C(=O)CO)C[C@@H]3O[C@H]1C[C@H](N)[C@H](O)[C@H](C)O1 [DOXORUBICIN] | 0.8 µM | – | 0.6 µM | 0.7 µM
15 | CCCCCc1cc2ccccc2nc1-c1cc(-c2ccc(C)cc2)no1 | > 100 µM | > 100 µM | > 100 µM | > 100 µM
16 | CCCc1cc2ccccc2nc1-c1cc(-c2ccc(F)cc2)no1 | 48.4 µM | 51.3 µM | 42.2 µM | 50.3 µM
17 | Fc1ccc(-c2cc(/C=N/c3ccccc3)on2)cc1 | 41.2 µM | 34.5 µM | 36.5 µM | 33.1 µM
18 | CCCCCc1cc2ccccc2nc1-c1cc(-c2ccc(C(F)(F)F)cc2)no1 | 22.1 µM | 28.3 µM | 30.2 µM | 24.5 µM
19 | CCCCc1cc2ccccc2nc1-c1cc(-c2ccc(C(F)(F)F)cc2)no1 | 10.4 µM | 9.4 µM | 10.8 µM | 11.9 µM
20 | CCc1cc2ccccc2nc1-c1cc(-c2ccc(C(F)(F)F)cc2)no1 | > 100 µM | > 100 µM | > 100 µM | > 100 µM
